Patent publication US12290596B2, “Compositions and methods for the treatment of opioid overdose” (priority 2021, dated 2025)

Key:
[1] = Phase 1 pharmacokinetic evaluation of nalmefene IN with and without Intravail vs IM injection
[2] = Two-period crossover pharmacokinetics of nalmefene 3 mg IN vs 1.0 mg IM (Example 12); details: for AUC(0-t) / AUC(0-inf): human, im, 1 mg; for AUC(0-inf): AUCinf
[3] = Treatment A: 3.0 mg nalmefene hydrochloride IN, plasma, Max, n 66
[4] = Treatment A: 3.0 mg nalmefene hydrochloride IN, plasma, Min, n 66
[5] = Treatment B: 1.0 mg nalmefene IM (gluteal muscle), plasma, Max, n 68
[6] = Treatment B: 1.0 mg nalmefene IM (gluteal muscle), plasma, Min, n 68
[7] = Treatment B: IM 1.0 mg nalmefene hydrochloride, plasma, Geo. Mean, n=68
[8] = Treatment B: IM 1.0 mg nalmefene hydrochloride, plasma, Max, n=68
[9] = Treatment B: IM 1.0 mg nalmefene hydrochloride, plasma, Mean, n=68
[10] = Treatment B: IM 1.0 mg nalmefene hydrochloride, plasma, Median, n=68
[11] = Treatment B: IM 1.0 mg nalmefene hydrochloride, plasma, Min, n=68

For `C=C1CC[C@@]2(O)[C@H]3Cc4ccc(O)c5c4[C@@]2(CCN3CC2CC2)[C@H]1O5` [Nalmefene, 17-cyclopropylmethyl-4,5α-epoxy-6-methylenemorphinan-3,14-diol], which “AUCextrap, mean” value ([1]; 1.5 mg IM) is on record?
Its value is 22.6%.

And the “Cmax/D, mean” value ([1]; 1.5 mg IM)?
The value was 1.12 ng/mL/mg.

And the “Lambda z, mean” value ([1]; 1.5 mg IM)?
The value was 0.094 h⁻¹.

And the “AUCextrap, mean” value ([1]; 1.5 mg IN)?
The value was 30.6%.

What about the “Cmax/D, mean” value ([1]; 1.5 mg IN) of the same molecule?
The value was 0.646 ng/mL/mg.

What about the “Half-life, mean” value ([1]; 1.5 mg IN) of the same molecule?
The value was 6.74 h.

And the “Lambda z, mean” value ([1]; 1.5 mg IN)?
Its value is 0.131 h⁻¹.

And the “AUCextrap, mean” value ([1]; 3 mg IN)?
The value was 17.9%.

And the “Cmax/D, mean” value ([1]; 3 mg IN)?
The value was 0.731 ng/mL/mg.

What about the “Lambda z, mean” value ([1]; 3 mg IN) of the same molecule?
Its value is 0.101 h⁻¹.

What about the “AUCextrap, mean” value ([1]; 3 mg plus […] Intravail IN) of the same molecule?
The value was 14.6%.

And the “Cmax/D, mean” value ([1]; 3 mg plus […] Intravail IN)?
The value was 1.65 ng/mL/mg.

What about the “Lambda z, mean” value ([1]; 3 mg plus […] Intravail IN) of the same molecule?
Its value is 0.117 h⁻¹.

And the concentration at 0 h ([1]; human, in vivo, 1.5 mg)?
Its concentration at 0 h is 0 ng/mL.

And the concentration at 0.04 h ([1]; human, in vivo, 1.5 mg)?
Its concentration at 0.04 h is 0 ng/mL.

And the concentration at 0.08 h ([1]; human, in vivo, 1.5 mg)?
The concentration at 0.08 h was 0 ng/mL.

What about the concentration at 30 h ([1]; human, in vivo, 1.5 mg) of the same molecule?
Its concentration at 30 h is 0 ng/mL.

And the concentration at 36 h ([1]; human, in vivo, 1.5 mg)?
The concentration at 36 h was 0 ng/mL.

What about the concentration at 48 h ([1]; human, in vivo, 1.5 mg) of the same molecule?
Its concentration at 48 h is 0 ng/mL.

What about the concentration at 60 h ([1]; human, in vivo, 1.5 mg) of the same molecule?
Its concentration at 60 h is 0 ng/mL.

What about the concentration at 72 h ([1]; human, in vivo, 1.5 mg) of the same molecule?
The concentration at 72 h was 0 ng/mL.

What about the concentration at 0 h ([1]; human, in vivo, 3 mg) of the same molecule?
The concentration at 0 h was 0 ng/mL.

And the concentration at 0.04 h ([1]; human, in vivo, 3 mg)?
The concentration at 0.04 h was 0 ng/mL.

And the concentration at 0.08 h ([1]; human, in vivo, 3 mg)?
The concentration at 0.08 h was 0 ng/mL.

And the concentration at 48 h ([1]; human, in vivo, 3 mg)?
Its concentration at 48 h is 0 ng/mL.

And the concentration at 60 h ([1]; human, in vivo, 3 mg)?
The concentration at 60 h was 0 ng/mL.

What about the concentration at 72 h ([1]; human, in vivo, 3 mg) of the same molecule?
Its concentration at 72 h is 0 ng/mL.

And the “Plasma concentrations compared to an intramuscular injection” value ([2]; 3 mg IN vs 1.0 mg IM, p<0.0001)?
The value was “significantly higher plasma concentrations”.

What about the AUC0-5 min [2, 3] of the same molecule?
The AUC0-5 min was 0.588 ng·h/mL.

What about the AUC0-10 min [2, 3] of the same molecule?
The AUC0-10 min was 2.78 ng·h/mL.

What about the AUC0-15 min [2, 3] of the same molecule?
Its AUC0-15 min is 5.03 ng·h/mL.

And the AUC0-20 min [2, 3]?
The AUC0-20 min was 6.79 ng·h/mL.

And the AUC0-30 min [2, 3]?
The AUC0-30 min was 9.16 ng·h/mL.

What about the “AUC0-[…]” value [2, 3] of the same molecule?
The value was 0.155 ng·h/mL.

And the AUC0-10 min [2, 4]?
Its AUC0-10 min is 0.0815 ng·h/mL.

What about the AUC0-15 min [2, 4] of the same molecule?
The AUC0-15 min was 0.196 ng·h/mL.

What about the AUC0-30 min [2, 4] of the same molecule?
The AUC0-30 min was 0.802 ng·h/mL.

And the AUC0-10 min [2, 5]?
The AUC0-10 min was 0.631 ng·h/mL.

And the AUC0-15 min [2, 5]?
Its AUC0-15 min is 1.05 ng·h/mL.

What about the AUC0-20 min [2, 5] of the same molecule?
Its AUC0-20 min is 1.33 ng·h/mL.

What about the AUC0-30 min [2, 5] of the same molecule?
The AUC0-30 min was 1.77 ng·h/mL.

And the “AUC0-[…]” value [2, 5]?
Its value is 0.0249 ng·h/mL.

What about the AUC0-15 min [2, 6] of the same molecule?
Its AUC0-15 min is 0.0218 ng·h/mL.

And the AUC0-20 min [2, 6]?
The AUC0-20 min was 0.0402 ng·h/mL.

What about the AUC0-30 min [2, 6] of the same molecule?
The AUC0-30 min was 0.0845 ng·h/mL.

And the AUCExtrap [2, 7]?
Its AUCExtrap is 3.94%.

And the CL/F [2, 7]?
The CL/F was 59.6 L/h.

What about the Kel [2, 7] of the same molecule?
The Kel was 0.0667 h⁻¹.

And the Tlast [2, 7]?
The Tlast was 48.0 h.

And the AUCExtrap [2, 8]?
The AUCExtrap was 13.3%.

And the AUClast [2, 8]?
The AUClast was 24.2 ng·h/mL.

And the CL/F [2, 8]?
Its CL/F is 91.8 L/h.

And the Kel [2, 8]?
Its Kel is 0.0968 h⁻¹.

And the AUCExtrap [2, 9]?
Its AUCExtrap is 4.50%.

And the CL/F [2, 9]?
The CL/F was 60.7 L/h.

What about the Kel [2, 9] of the same molecule?
The Kel was 0.0677 h⁻¹.

And the Tlast [2, 9]?
Its Tlast is 48.0 h.

What about the AUCExtrap [2, 10] of the same molecule?
The AUCExtrap was 3.86%.

And the CL/F [2, 10]?
Its CL/F is 58.7 L/h.

And the Kel [2, 10]?
Its Kel is 0.0695 h⁻¹.

And the Tlast [2, 10]?
Its Tlast is 48.0 h.

And the AUCExtrap [2, 11]?
Its AUCExtrap is 1.13%.

What about the AUClast [2, 11] of the same molecule?
Its AUClast is 10.5 ng·h/mL.

And the CL/F [2, 11]?
Its CL/F is 40.0 L/h.

What about the Kel [2, 11] of the same molecule?
The Kel was 0.0394 h⁻¹.

What about the Tlast [2, 11] of the same molecule?
Its Tlast is 48.0 h.

What about the AUC(0-t) ([2]; plasma, AUC0-5 min, GeoMean, Treatment B 1.0 mg IM (Ref)) of the same molecule?
The AUC(0-t) was 0.01 ng·h/mL.

What about the AUC(0-t) ([2]; plasma, AUC0-5 min, Treatment B: 1.0 mg nalmefene IM (gluteal muscle), plasma, Geo. Mean, n 68) of the same molecule?
Its AUC(0-t) is 0.0102 ng·h/mL.

And the AUC(0-t) ([2]; plasma, AUC0-5 min, Treatment B: 1.0 mg nalmefene IM (gluteal muscle), plasma, Mean, n 68)?
The AUC(0-t) was 0.0181 ng·h/mL.

And the AUC(0-t) ([2]; plasma, AUC0-10 min, GeoMean, Treatment B 1.0 mg IM (Ref))?
Its AUC(0-t) is 0.064 ng·h/mL.

What about the AUC(0-t) ([2]; plasma, AUC0-10 min, Treatment B: 1.0 mg nalmefene IM (gluteal muscle), plasma, Geo. Mean, n 68) of the same molecule?
Its AUC(0-t) is 0.0639 ng·h/mL.

What about the AUC(0-t) ([2]; plasma, AUC0-10 min, Treatment B: 1.0 mg nalmefene IM (gluteal muscle), plasma, Mean, n 68) of the same molecule?
The AUC(0-t) was 0.0994 ng·h/mL.

And the AUC(0-t) ([2]; plasma, AUC0-10 min, Treatment B: 1.0 mg nalmefene IM (gluteal muscle), plasma, Median, n 68)?
The AUC(0-t) was 0.0583 ng·h/mL.

What about the AUC(0-t) ([2]; plasma, AUC0-15 min, GeoMean, Treatment B 1.0 mg IM (Ref)) of the same molecule?
The AUC(0-t) was 0.142 ng·h/mL.

What about the AUC(0-t) ([2]; plasma, AUC0-15 min, Treatment B: 1.0 mg nalmefene IM (gluteal muscle), plasma, Geo. Mean, n 68) of the same molecule?
Its AUC(0-t) is 0.142 ng·h/mL.

What about the AUC(0-t) ([2]; plasma, AUC0-15 min, Treatment B: 1.0 mg nalmefene IM (gluteal muscle), plasma, Mean, n 68) of the same molecule?
The AUC(0-t) was 0.2 ng·h/mL.

And the AUC(0-t) ([2]; plasma, AUC0-15 min, Treatment B: 1.0 mg nalmefene IM (gluteal muscle), plasma, Median, n 68)?
The AUC(0-t) was 0.143 ng·h/mL.

What about the AUC(0-t) ([2]; plasma, AUC0-20 min, GeoMean, Treatment B 1.0 mg IM (Ref)) of the same molecule?
The AUC(0-t) was 0.228 ng·h/mL.

What about the AUC(0-t) ([2]; plasma, AUC0-20 min, Treatment B: 1.0 mg nalmefene IM (gluteal muscle), plasma, Geo. Mean, n 68) of the same molecule?
The AUC(0-t) was 0.228 ng·h/mL.

And the AUC(0-t) ([2]; plasma, AUC0-20 min, Treatment B: 1.0 mg nalmefene IM (gluteal muscle), plasma, Mean, n 68)?
Its AUC(0-t) is 0.299 ng·h/mL.

What about the AUC(0-t) ([2]; plasma, AUC0-20 min, Treatment B: 1.0 mg nalmefene IM (gluteal muscle), plasma, Median, n 68) of the same molecule?
The AUC(0-t) was 0.228 ng·h/mL.

And the AUC(0-t) ([2]; plasma, AUC0-30 min, GeoMean, Treatment B 1.0 mg IM (Ref))?
Its AUC(0-t) is 0.405 ng·h/mL.

And the AUC(0-t) ([2]; plasma, AUC0-30 min, Treatment B: 1.0 mg nalmefene IM (gluteal muscle), plasma, Geo. Mean, n 68)?
The AUC(0-t) was 0.405 ng·h/mL.

And the AUC(0-t) ([2]; plasma, AUC0-30 min, Treatment B: 1.0 mg nalmefene IM (gluteal muscle), plasma, Mean, n 68)?
The AUC(0-t) was 0.491 ng·h/mL.

And the AUC(0-t) ([2]; plasma, AUC0-30 min, Treatment B: 1.0 mg nalmefene IM (gluteal muscle), plasma, Median, n 68)?
Its AUC(0-t) is 0.389 ng·h/mL.

And the AUC(0-t) ([2]; plasma, AUCLast, GeoMean, Treatment B 1.0 mg IM (Ref))?
Its AUC(0-t) is 16 ng·h/mL.

And the AUC(0-inf) ([2]; plasma, GeoMean, Treatment B 1.0 mg IM (Ref))?
The AUC(0-inf) was 16.8 ng·h/mL.

And the AUC(0-inf) ([2]; plasma, Treatment B: IM 1.0 mg nalmefene hydrochloride, plasma, Geo. Mean, n=68)?
The AUC(0-inf) was 16.8 ng·h/mL.
